# Assay results published in patent publication US10738281B2, “Reprogramming cells” (The Scripps Research Institute, priority 2010, dated 2020).
# Experiments:
# [1] = system: Human Umbilical Vein Endothelial Cells (HUVECs); assay: Reprogramming of four factor-transduced HUVECs using metabolism modulating compounds; details: four factor (Klf, Sox, Myc, Oct)-transduced HUVECs, 20,000 cells per well, three weeks; DNP 1 μM, NOG 1 μM, QC 1 μM, OA 10 μM, F2,6P 10 mM
# NHEKs = assay: Lactate production in the medium as index of glycolysis (Lactate Assay Kit); details: NHEKs treated 8 d with PS48, PS48 and UCN-01, or PS48 and 2-DG
# [2] = system: Neonatal Human Epidermal Keratinocytes (NHEKs); assay: Reprogramming of transduced NHEKs to iPSCs, TRA-1-81 positive colonies; details: for reprogramming of NHEKs, TRA-1-81 positive colonies (in words): three factor (Klf, Sox, Oct)-transduced NHEKs, 100,000 cells per well, four weeks, 2-DG 10 mM
# [3] = system: GLUT1, HK2, PFK1 and LDHA; assay: Expression of key glycolytic genes after treatment; details: PS48 treatment
SMILES,"effect on reprogramming, TRA-1-81 positive colonies (in words) [1]","glycolysis, lactate production in the medium (in words) (NHEKs)","reprogramming of NHEKs, TRA-1-81 positive colonies (in words) [2]",also measured
"O=[N+]([O-])c1ccc(O)c([N+](=O)[O-])c1 [2,4-dinitrophenol]",enhance reprogramming,,,
O=CC[C@@H](O)[C@H](O)[C@H](O)CO [2-Deoxy-D-glucose],,inhibited glycolysis,inhibited reprogramming process,
"O=P(O)(O)OC[C@H]1O[C@@](CO)(OP(=O)(O)O)[C@@H](O)[C@@H]1O [Fructose 2,6-bisphosphate]",corresponding consistent effects on reprogramming,,,
O=C(O)CNC(=O)C(=O)O [N-oxalylglycine],enhance reprogramming,,,
"CCCC(=O)[O-].[Na+] [NaB, sodium butyrate]",,,,"generation of iPSCs under OK condition (in words) ([2]; NHEKs, OCT4 + KLF4, 0.25 mM NaB compared with 0.5 mM VPA): much more reliable and efficient than the previously reported 0.5 mM VPA"
"O=C(O)/C=C(/CCc1ccc(Cl)cc1)c1ccccc1 [PS48, (Z)-5-(4-Chlorophenyl)-3-phenylpent-2-enoic acid]",,facilitated/activated a metabolic switch to glycolysis,enhanced reprogramming,"expression of key glycolytic genes GLUT1, HK2, PFK1 and LDHA (in words) [3]: up-regulated; enhancement of reprogramming efficiency ([2]; NHEKs transduced with OK (OCT4 + KLF4), treated with 0.5 μM PD0325901 and 0.5 μM A-83-01): about fifteen"
"O=c1c(O)c(-c2ccc(O)c(O)c2)oc2cc(O)cc(O)c12 [Quercetin, 3,3′,4′,5,7-pentahydroxyflavone]",corresponding consistent effects on reprogramming,,,
CN[C@@H]1C[C@H]2O[C@@](C)([C@@H]1OC)n1c3ccccc3c3c4c(c5c6ccccc6n2c5c31)C(=O)N[C@@H]4O [UCN-01],,inhibited glycolysis,inhibited reprogramming process,
O=C(O)C(=O)O [oxalate],inhibit reprogramming,,,
